Assay results published in PMC11538350, “Synthetic studies on the tetrasubstituted D-ring of cystobactamids lead to potent terephthalic acid antibiotics” (Communications Chemistry, 2024).
In brackets after ≈: the same amount, converted by molar mass. Where two headings read alike, the source gives them in different places.

Experiments:
E. ae. CIP 106754 = test: MIC assay; type: cell-based, Enterobacter aerogenes; conditions: Klebsiella aerogenes, CIP106754, read-out: MIC E. ae. CIP 106754
Description: (§1) All cystobactamids were evaluated in MIC-assays on a panel of representative ESKAPE strains with focus on A. baumannii (Tables 1 and 2). Compared to our previous work[10],[17],[18], we specifically included more challenging test strains with known resistances against gyrase inhibitors.
(§2) 2.1 Materials and Methods
(§3) Strains were cultivated according to standard procedures. Bacterial cryo-cultures were
(§4) resuspended into fresh MHBII (cation adjusted) medium. The resuspension
(§5) assay plate (Corning, #3788).
(§6) in parallel as a positive control. […]

A. baum. ATCC BAA-1710 = test: MIC assay; type: cell-based
Description: as §1, §2, §3, §4, §5, §6

A. baum. CIP-105742 = test: MIC assay; type: cell-based
Description: as §1, §2, §3, §4, §5, §6

A. baum. CIP-107292 = test: MIC assay; type: cell-based
Description: as §1, §2, §3, §4, §5, §6

A. baum. DSM-30008 = test: MIC assay; type: cell-based; conditions: Acinetobacter baumannii
Description: as §1, §2, §3, §4, §5, §6

A. baum. R835 = test: MIC assay; type: cell-based
Description: as §1, §2, §3, §4, §5, §6

E. cloacae ATCC BAA-2468 = test: MIC assay; type: cell-based
Description: as §1, §2, §3, §4, §5, §6

E. coli ATCC-25922 = test: MIC assay; type: cell-based; conditions: Escherichia coli
Description: as §1, §2, §3, §4, §5, §6

E. coli LM705 = test: MIC assay; type: cell-based; conditions: Escherichia coli, LM705, read-out: MIC E. coli LM705
Description: as §1, §2, §3, §4, §5, §6

K. pneum. CIP-104298 = test: MIC assay; type: cell-based; conditions: Klebsiella pneumoniae
Description: as §1, §2, §3, §4, §5, §6

K. pneum. KP10581 = test: MIC assay; type: cell-based
Description: as §1, §2, §3, §4, §5, §6

K. pneum. R-1525 = test: MIC assay; type: cell-based
Description: as §1, §2, §3, §4, §5, §6

P. ae. PA14 = test: MIC assay; type: cell-based; conditions: Pseudomonas aeruginosa
Description: as §1, §2, §3, §4, §5, §6

P. ae. PA14ΔmexAB = test: MIC assay; type: cell-based; conditions: Pseudomonas aeruginosa, read-out: MIC P. ae. PA14ΔmexAB
Description: as §1, §2, §3, §4, §5, §6

S. aur. ATCC-29213 = test: MIC assay; type: cell-based; conditions: Staphylococcus aureus
Description: as §1, §2, §3, §4, §5, §6

[1] = tested on: S. pneum. DSM-11865 (PRSP); test: MIC assay; type: cell-based
Description: as §1, §2, §3, §4, §5, §6

E. faec. DSM-17050 (VRE) = test: MIC assay; type: cell-based, Enterococcus faecium
Description: as §1, §2, §3, §4, §5, §6

[2] = for T1/2 PLASMA (H): human plasma; for T1/2 PLASMA (M): mouse plasma
Description: 2.1 Materials and Methods […]
Determination of in vitro ADME properties
7, 8, 11 and 42. All samples were analysed via HPLC -MS/MS.
HPLC-MS/MS analysis of cystobactamids
AB Sciex QTrap 6500plus mass spectrometer. LC conditions were as follows: column:
Samples were run under acidic
For plasma stability experiments, samples were procured from commercial sources.
Human plasma was obtained from Antibodies-online (catalog no. ABIN5706569), and mouse plasma was obtained from Tebubio (catalog no. D408-04-0050).
The methods were performed in accordance with relevant guidelines and regulations and approved by the Helmholtz Centre for Infection Research. […]

[3] = metabolic stability assay, mouse microsomes; conditions: Table S4
[4] = metabolic stability assay, human microsomes; conditions: second microsome column of Table S4, head prints (M); mouse and human microsomes
[5] = PK study in mice after intravenous administration; type: in vivo, CD-1 mice; conditions: male, plasma
Description: and approved by the Helmholtz Centre for Infection Research.
Germany), 4-weeks-old, were used. The animal studies were conducted in accordance […]
Verbraucherschutz und Lebensmittelsicherheit, Oldenburg, Germany.
Then, plasma was transferred into a new Eppendorf tube and stored at -80°C until analysis.
Bioanalysis of pharmacokinetic and pharmacodynamic samples […]
mouse plasma from CD-1 mice. Glipizide was used as an internal standard. In addition, […]
mixer. […] Supernatants were […]
transferred to standard HPLC-glass vials. Samples were analyzed using LC-MS/MS conditions as described above. Peaks of PK samples were quantified using the calibration curve using AB Sciex Multiquant Software 3.0. The accuracy of the calibration curve was determined using QCs independently prepared. PK parameters were determined using a non-compartmental analysis with PKSolver.23
Figure S1: Plasma concentration curves for cystobactamid 42. Error bars were determined via standard deviation of two cassette experiments per compound (n=2). […]
(1 picture or pasted object on this page, not shown here)

ESKAPE strains = test: MIC-assays on a panel of representative ESKAPE strains, summary in words; type: cell-based; conditions: summary of the MIC tables
Description: as §1, §2, §3, §4, §5, §6

[6] = Acinetobacter baumannii, ATCCBAA1710; read-out: MIC A. baum. ATCC BAA-1710
[7] = Acinetobacter baumannii, CIP105742; read-out: MIC A. baum. CIP-105742
[8] = Acinetobacter baumannii, CIP107292; read-out: MIC A. baum. CIP-107292
[9] = DSM30008, reference strain, read-out: MIC A. baum. DSM-30008
[10] = Acinetobacter baumannii; read-out: MIC A. baum. R835
[11] = Enterobacter cloacae, ATCCBAA2468; read-out: MIC E. cloacae ATCC BAA-2468
[12] = ATCC25922, reference strain, read-out: MIC E. coli ATCC-25922
[13] = CIP104298, reference strain, read-out: MIC K. pneum. CIP-104298
[14] = Klebsiella pneumoniae; read-out: MIC K. pneum. KP10581
[15] = Klebsiella pneumoniae; read-out: MIC K. pneum. R-1525
[16] = PA14, reference strain, read-out: MIC P. ae. PA14
[17] = ATCC29213, reference strain, read-out: MIC S. aur. ATCC-29213
[18] = Streptococcus pneumoniae; read-out: MIC S. pneum. DSM-11865 (PRSP)
[19] = Enterococcus; read-out: MIC E. faec. DSM-17050 (VRE)

Compound | MIC (E. ae. CIP 106754) [µg/mL] | MIC (A. baum. ATCC BAA-1710; [6]) [µg/mL] | MIC (A. baum. CIP-105742; [7]) [µg/mL] | MIC (A. baum. CIP-107292; [8]) [µg/mL] | MIC (A. baum. DSM-30008; [9]) [µg/mL] | MIC (A. baum. R835; [10]) [µg/mL] | MIC (E. cloacae ATCC BAA-2468; [11]) [µg/mL] | MIC (E. coli ATCC-25922; [12]) [µg/mL] | MIC (E. coli LM705) [µg/mL] | MIC (K. pneum. CIP-104298; [13]) [µg/mL] | MIC (K. pneum. KP10581; [14]) [µg/mL] | MIC (K. pneum. R-1525; [15]) [µg/mL] | MIC (P. ae. PA14; [16]) [µg/mL] | MIC (P. ae. PA14ΔmexAB) [µg/mL] | MIC (S. aur. ATCC-29213; [17]) [µg/mL] | MIC [1, 18] [µg/mL] | T1/2 PLASMA (H) [2] [h] | T1/2 PLASMA (M) [2] [h] | T1/2 MICROSOMES (M) [3] [h] | T1/2 MICROSOMES (M) [4] [h] | also measured
C#CC[C@H](NC(=O)c1ccc(NC(=O)c2ccc(C#N)cc2)cc1)C(=O)Nc1ccc(C(=O)Nc2ccc(C(=O)Nc3ccc(C(=O)O)cc3)c(F)c2OC(C)C)cc1 [Cmpd. 4] | > 64 | > 8 | 0.25 to 0.5 (≈ 0.315 to 0.629 µM) | > 8 | 0.06 (≈ 0.0755 µM) | > 8 | > 64 | 4 (≈ 5.03 µM) | > 64 | > 64 | > 64 | > 64 | > 64 | > 64 | > 64 | > 64 | > 4 | > 4 | > 1 | > 1 | MIC (E. faec. DSM-17050 (VRE); [19]): 4 µg/mL (≈ 5.03 µM)
C#CC[C@H](NC(=O)c1ccc(NC(=O)c2ccc(C#N)cc2)cc1)C(=O)Nc1ccc(C(=O)Nc2ccc(C(=O)Nc3ccc(C(=O)O)cc3)c(O)c2CC(C)C)cc1 [Cmpd. 11] | > 64 | 0.25 (≈ 0.316 µM) | < 0.03 | > 64 | 1 (≈ 1.26 µM) | > 64 | > 64 | < 0.03 | > 64 | > 64 | 8 (≈ 10.1 µM) | > 64 | > 64 | > 64 | 16 to 32 (≈ 20.2 to 40.5 µM) | > 64 | > 4 | > 4 | > 1 | > 1 | MIC (E. faec. DSM-17050 (VRE); [19]): < 0.03 µg/mL
C#CC[C@H](NC(=O)c1ccc(NC(=O)c2ccc(C#N)cc2)cc1)C(=O)Nc1ccc(NC(=O)c2ccc(C(=O)Nc3ccc(C(=O)O)cc3)c(O)c2OC(C)C)cc1 [Cmpd. 42] | 1 (≈ 1.26 µM) |  |  |  |  |  |  |  | 0.06 (≈ 0.0757 µM) |  |  |  |  | < 0.03 |  |  | > 4 | > 4 | > 1 | > 1 | MIC (A. baum. ATCC BAA-1710; Acinetobacter baumannii, ATCCBAA1710, read-out: MIC A. baum. ATCC BAA-1710): 0.03 to 0.05 µg/mL (≈ 0.0378 to 0.0631 µM); MIC (A. baum. CIP-105742; Acinetobacter baumannii, CIP105742, read-out: MIC A. baum. CIP-105742): < 0.03 µg/mL; MIC (A. baum. CIP-107292; Acinetobacter baumannii, CIP107292, read-out: MIC A. baum. CIP-107292): 0.05 µg/mL (≈ 0.0631 µM); MIC (A. baum. DSM-30008; DSM30008, read-out: MIC A. baum. DSM-30008): 0.125 µg/mL (≈ 0.158 µM); MIC (A. baum. R835; Acinetobacter baumannii, read-out: MIC A. baum. R835): 0.5 µg/mL (≈ 0.631 µM); MIC (E. cloacae ATCC BAA-2468; Enterobacter cloacae, ATCCBAA2468, read-out: MIC E. cloacae ATCC BAA-2468): 0.25 µg/mL (≈ 0.315 µM); MIC (E. coli ATCC-25922; ATCC25922, read-out: MIC E. coli ATCC-25922): < 0.03 µg/mL; MIC (K. pneum. CIP-104298; CIP104298, read-out: MIC K. pneum. CIP-104298): < 0.03 µg/mL; MIC (K. pneum. KP10581; Klebsiella pneumoniae, read-out: MIC K. pneum. KP10581): < 0.03 µg/mL; MIC (K. pneum. R-1525; Klebsiella pneumoniae, read-out: MIC K. pneum. R-1525): < 0.03 µg/mL; MIC (P. ae. PA14; PA14, read-out: MIC P. ae. PA14): 4 µg/mL (≈ 5.05 µM); MIC (S. aur. ATCC-29213; ATCC29213, read-out: MIC S. aur. ATCC-29213): 0.06 µg/mL (≈ 0.0757 µM); MIC ([1]; Streptococcus pneumoniae, read-out: MIC S. pneum. DSM-11865 (PRSP)): < 0.03 µg/mL; MIC (E. faec. DSM-17050 (VRE); Enterococcus, read-out: MIC E. faec. DSM-17050 (VRE)): < 0.03 µg/mL; clearance ([5]; CD-1, mouse, iv, 1 mg/kg): 17.9 ± 12.3 mL/min/kg; C0 ([5]; CD-1, mouse, iv, 1 mg/kg, concentration at t = 0 h, CD-1 mice, 1 mg/kg IV): ~2200 ng/mL; Vd ([5]; CD-1, mouse, iv, 1 mg/kg, volume of distribution, CD-1 mice, 1 mg/kg IV, read-out: Vz): ~1.4 L/kg; AUC(0-t) ([5]; mouse, CD-1 mice, 1 mg/kg IV): 1210 ± 832 ng·h/mL; half-life ([5]; mouse, CD-1 mice, 1 mg/kg IV): 0.88 ± 0.1 h; antibacterial activity on the pathogen panel, in words (ESKAPE strains): exceptional activity
